The test system of experiment [1] is Escherichia coli. In words: Compound was tested in vitro for its minimum inhibitory concentration by serial 2-fold agar dilution Muller Hinton method against Escherichia coli 1507E. The format is functional. (In general: Agar dilution tests growth on a series of plates holding different concentrations.)
The test system of experiment [2] is Escherichia coli. The experiment in a line: Compound was tested in vitro for its minimum inhibitory concentration by serial 2-fold agar dilution Muller Hinton method against Escherichia coli DC 0. It is filed as functional.
For experiment [3], the system named is Escherichia coli. The experiment in a line: Compound was tested in vitro for its minimum inhibitory concentration by serial 2-fold agar dilution Muller Hinton method against Escherichia coli DC 2. It is filed as functional.
Experiment [4] concerns Escherichia coli. The experiment in a line: Compound was tested in vitro for its minimum inhibitory concentration by serial 2-fold agar dilution Muller Hinton method against Escherichia coli O 55. It is filed as functional.
Experiment [5] concerns Enterobacter cloacae. In words: Compound was tested in vitro for its minimum inhibitory concentration by serial 2-fold agar dilution Muller Hinton method against Enterobacter cloacae P99. It is filed as functional.
A further experiment concerns Klebsiella oxytoca. The experiment in a line: Compound was tested in vitro for its minimum inhibitory concentration by serial 2-fold agar dilution Muller Hinton method against Klebsiella oxytoca 1082 E. The format is functional.
A further experiment concerns Klebsiella aerogenes. The experiment in a line: Compound was tested in vitro for its minimum inhibitory concentration by serial 2-fold agar dilution Muller Hinton method against Klebsiella aerogenes 1522 E. It is filed as functional.
Experiment [6] relates to Pseudomonas aeruginosa. In words: Compound was tested in vitro for its minimum inhibitory concentration by serial 2-fold agar dilution Muller Hinton method against Pseudomonas aeruginosa 1592 E. It is filed as functional.
Experiment [7] concerns Pseudomonas aeruginosa. In words: Compound was tested in vitro for its minimum inhibitory concentration by serial 2-fold agar dilution Muller Hinton method against Pseudomonas aeruginosa 1771 M. The format is functional.
Experiment [8] concerns Staphylococcus aureus. In words: Compound was tested in vitro for its minimum inhibitory concentration by serial 2-fold agar dilution Muller Hinton method against Staphylococcus aureus 503. It is filed as functional.
For experiment [9], the system named is Staphylococcus aureus. The experiment in a line: Compound was tested in vitro for its minimum inhibitory concentration by serial 2-fold agar dilution Muller Hinton method against Staphylococcus aureus SG511. The format is functional.
The test system of experiment [10] is Staphylococcus aureus. In words: Compound was tested in vitro for its minimum inhibitory concentration by serial 2-fold agar dilution Muller Hinton method against Staphylococcus aureus 285. The format is functional.
For experiment [11], the system named is Streptococcus pyogenes. The experiment in a line: Compound was tested in vitro for its minimum inhibitory concentration by serial 2-fold agar dilution Muller Hinton method against Streptococcus pyogenes 8b. The format is functional.
Experiment [12] relates to Streptococcus pyogenes. In words: Compound was tested in vitro for its minimum inhibitory concentration by serial 2-fold agar dilution Muller Hinton method against Streptococcus pyogenes A 308. It is filed as functional.
For experiment [13], the system named is Streptococcus pyogenes. In words: Compound was tested in vitro for its minimum inhibitory concentration by serial 2-fold agar dilution Muller Hinton method against Streptococcus pyogenes A77. The format is functional.
Experiment [14] concerns Pseudomonas aeruginosa. In words: Compound was tested in vitro for its minimum inhibitory concentration by serial 2-fold agar dilution Muller Hinton method against Pseudomonas aeruginosa 1771. The format is functional.
The test system of the next experiment is Salmonella typhimurium. In words: Compound was tested in vitro for its minimum inhibitory concentration by serial 2-fold agar dilution Muller Hinton method against Salmonella Typhimurium. The format is functional, Salmonella enterica subsp. enterica serovar Typhimurium. As to conditions: Salmonella enterica.
In experiment [15] the test system is Enterobacter cloacae. In words: Compound was tested in vitro for its minimum inhibitory concentration by serial 2-fold agar dilution Muller Hinton method against Enterobacter cloacae 1321. It is filed as functional.
Experiment [16] concerns Escherichia coli. In words: Compound was tested in vitro for its minimum inhibitory concentration by serial 2-fold agar dilution Muller Hinton method against Escherichia coli TEM. It is filed as functional.
Experiment [17] has as its system Pseudomonas aeruginosa. In words: Compound was tested in vitro for its minimum inhibitory concentration by serial 2-fold agar dilution Muller Hinton method against Pseudomonas aeruginosa 9027. It is filed as functional.

From ChEMBL document CHEMBL1133057, “Synthesis and in vitro antibacterial activity of 3-[N-methyl-N-(3-methyl-1,3-thiazolium-2-yl)aminolmethyl cephalosporin derivatives” (2000) come the findings set out here.

Values after ≈ are worked out from the molar mass of the structure shown.

What is called MIC is the lowest concentration found to suppress growth. For `C=CCO/N=C(\C(=O)NC1C(=O)N2C(C(=O)[O-])=C(CN(C)c3sc(C(=O)OCC)c(C)[n+]3C)CSC12)c1csc(N)n1` (stereo not given), the MIC with Escherichia coli [1] came out at 0.098 µg/mL (≈ 0.154 µM); with Escherichia coli [2] it was 0.098 µg/mL (≈ 0.154 µM); in the experiment on Escherichia coli [3], 0.025 µg/mL (≈ 0.0393 µM); against Escherichia coli [4], 0.025 µg/mL (≈ 0.0393 µM); against Enterobacter cloacae [5] it was 25 µg/mL (≈ 39.3 µM); against Klebsiella oxytoca, 6.25 µg/mL (≈ 9.83 µM). For the same compound, the MIC in the experiment on Klebsiella aerogenes was determined as 0.049 µg/mL (≈ 0.0771 µM); with Pseudomonas aeruginosa [6] it was 12.5 µg/mL (≈ 19.7 µM); in the experiment on Pseudomonas aeruginosa [7] it was 0.391 µg/mL (≈ 0.615 µM); with Staphylococcus aureus [8] it was 0.391 µg/mL (≈ 0.615 µM); in the experiment on Staphylococcus aureus [9], 0.781 µg/mL (≈ 1.23 µM); in the experiment with Staphylococcus aureus [10], 1.56 µg/mL (≈ 2.46 µM). In addition, the MIC against Streptococcus pyogenes [11] worked out at 50 µg/mL (≈ 78.6 µM); in the experiment on Streptococcus pyogenes [12], 0.013 µg/mL (≈ 0.0204 µM); in the experiment on Streptococcus pyogenes [13], 0.013 µg/mL (≈ 0.0204 µM); in the experiment with Pseudomonas aeruginosa [14], 3.12 µg/mL (≈ 4.92 µM); in the experiment on Salmonella typhimurium, 0.049 µg/mL (≈ 0.0771 µM); in the experiment with Enterobacter cloacae [15] it was 0.025 µg/mL (≈ 0.0393 µM). For the same compound, the values for the MIC in the experiment on Escherichia coli [16] and against Pseudomonas aeruginosa [17] were 0.098 µg/mL (≈ 0.154 µM) and 25 µg/mL (≈ 39.3 µM), respectively.
Take `C=CCO/N=C(\C(=O)NC1C(=O)N2C(C(=O)[O-])=C(CN(C)c3scc(C)[n+]3C)CSC12)c1csc(N)n1` (stereo not given): the MIC with Escherichia coli [1] came to 0.195 µg/mL (≈ 0.346 µM); in the experiment with Escherichia coli [2], 0.195 µg/mL (≈ 0.346 µM); in the experiment with Escherichia coli [3], 0.025 µg/mL (≈ 0.0444 µM); in the experiment with Escherichia coli [4], 0.049 µg/mL (≈ 0.0869 µM); against Enterobacter cloacae [5], 25 µg/mL (≈ 44.4 µM); in the experiment with Klebsiella oxytoca, 12.5 µg/mL (≈ 22.2 µM). The MIC against Klebsiella aerogenes was 0.098 µg/mL (≈ 0.174 µM); in the experiment with Pseudomonas aeruginosa [6] it was 12.5 µg/mL (≈ 22.2 µM); against Pseudomonas aeruginosa [7] it was 0.195 µg/mL (≈ 0.346 µM); against Staphylococcus aureus [8] it was 0.195 µg/mL (≈ 0.346 µM); against Staphylococcus aureus [9], 0.391 µg/mL (≈ 0.694 µM); with Staphylococcus aureus [10] it was 0.781 µg/mL (≈ 1.39 µM). Besides, the MIC with Streptococcus pyogenes [11] amounted to 25 µg/mL (≈ 44.4 µM); in the experiment with Streptococcus pyogenes [12], 0.013 µg/mL (≈ 0.0231 µM); in the experiment with Streptococcus pyogenes [13], 0.007 µg/mL (≈ 0.0124 µM); against Pseudomonas aeruginosa [14], 6.25 µg/mL (≈ 11.1 µM); in the experiment with Salmonella typhimurium, 0.098 µg/mL (≈ 0.174 µM); with Enterobacter cloacae [15], 0.098 µg/mL (≈ 0.174 µM). For the same compound, the MIC in the experiment with Escherichia coli [16] turned out to be 0.195 µg/mL (≈ 0.346 µM); in the experiment with Pseudomonas aeruginosa [17], 25 µg/mL (≈ 44.4 µM).
As to `CO/N=C(\C(=O)N[C@@H]1C(=O)N2C(C(=O)O)=C(COC(C)=O)CS[C@H]12)c1csc(N)n1` [CEFOTAXIME], the MIC was 0.025 µg/mL (≈ 0.0549 µM) against Escherichia coli [1]; 0.025 µg/mL (≈ 0.0549 µM) against Escherichia coli [2]; 0.013 µg/mL (≈ 0.0285 µM) in the experiment with Escherichia coli [3]; 0.007 µg/mL (≈ 0.0154 µM) against Escherichia coli [4]; 100 µg/mL (≈ 220 µM) in the experiment on Enterobacter cloacae [5]; 1.56 µg/mL (≈ 3.43 µM) in the experiment with Klebsiella oxytoca. Moreover, the MIC turned out to be 0.025 µg/mL (≈ 0.0549 µM) in the experiment with Klebsiella aerogenes; 12.5 µg/mL (≈ 27.4 µM) in the experiment on Pseudomonas aeruginosa [6]; 0.098 µg/mL (≈ 0.215 µM) in the experiment on Pseudomonas aeruginosa [7]; 0.781 µg/mL (≈ 1.71 µM) in the experiment on Staphylococcus aureus [8]; 1.56 µg/mL (≈ 3.43 µM) against Staphylococcus aureus [9]; 3.12 µg/mL (≈ 6.86 µM) against Staphylococcus aureus [10]. Further, the MIC was determined as 100 µg/mL (≈ 220 µM) in the experiment with Streptococcus pyogenes [11]; 0.007 µg/mL (≈ 0.0154 µM) against Streptococcus pyogenes [12]; 0.002 µg/mL (≈ 0.00439 µM) in the experiment with Streptococcus pyogenes [13]; 3.12 µg/mL (≈ 6.86 µM) against Pseudomonas aeruginosa [14]; 0.025 µg/mL (≈ 0.0549 µM) with Salmonella typhimurium; 0.007 µg/mL (≈ 0.0154 µM) with Enterobacter cloacae [15]. Moreover, the figures for the MIC in the experiment with Escherichia coli [16] and against Pseudomonas aeruginosa [17] were 0.025 µg/mL (≈ 0.0549 µM) and 25 µg/mL (≈ 54.9 µM), respectively.
Turning to `CO/N=C(\C(=O)N[C@@H]1C(=O)N2C(C(=O)[O-])=C(C[n+]3cccc4c3CCC4)CS[C@H]12)c1csc(N)n1` [CEFPIROME], the MIC was determined as 0.025 µg/mL (≈ 0.0486 µM) against Escherichia coli [1]; 0.013 µg/mL (≈ 0.0253 µM) against Escherichia coli [2]; 0.049 µg/mL (≈ 0.0952 µM) against Escherichia coli [3]; 0.025 µg/mL (≈ 0.0486 µM) in the experiment with Escherichia coli [4]; 3.12 µg/mL (≈ 6.07 µM) with Enterobacter cloacae [5]; 1.56 µg/mL (≈ 3.04 µM) in the experiment with Klebsiella oxytoca. The MIC worked out at 0.025 µg/mL (≈ 0.0486 µM) in the experiment on Klebsiella aerogenes; 1.56 µg/mL (≈ 3.04 µM) with Pseudomonas aeruginosa [6]; 0.391 µg/mL (≈ 0.76 µM) in the experiment on Pseudomonas aeruginosa [7]; 0.098 µg/mL (≈ 0.19 µM) against Staphylococcus aureus [8]; 0.391 µg/mL (≈ 0.76 µM) against Staphylococcus aureus [9]; 0.781 µg/mL (≈ 1.52 µM) with Staphylococcus aureus [10]. Moreover, the MIC was 1.56 µg/mL (≈ 3.04 µM) against Streptococcus pyogenes [11]; 0.007 µg/mL (≈ 0.0136 µM) against Streptococcus pyogenes [12]; 0.007 µg/mL (≈ 0.0136 µM) against Streptococcus pyogenes [13]; 0.781 µg/mL (≈ 1.52 µM) against Pseudomonas aeruginosa [14]; 0.025 µg/mL (≈ 0.0486 µM) in the experiment with Salmonella typhimurium; 0.013 µg/mL (≈ 0.0253 µM) in the experiment with Enterobacter cloacae [15]. For the same compound, the MIC in the experiment on Escherichia coli [16] is 0.049 µg/mL (≈ 0.0952 µM); in the experiment on Pseudomonas aeruginosa [17], 3.12 µg/mL (≈ 6.07 µM).
